# Read-outs that look alike come from different tables or passages of the source.
# Assays:
# Test in all cases: in vitro antibacterial activity, standard agar dilution method
# Assay type in all cases: cell-based
# [1] = system: Proteus vulgaris OX19 ATCC 6898; conditions: ATCC6898, aerobic, read-out: minimum inhibitory concentration (MIC)
# [2] = system: Pseudomonas stutzeri IFO 12695; conditions: Stutzerimonas stutzeri, IFO12695, aerobic, read-out: minimum inhibitory concentration (MIC)
# [3] = system: Enterococcus faecalis NR 2943; conditions: NR2943, aerobic, read-out: minimum inhibitory concentration (MIC)
# [4] = system: Pseudomonas aeruginosa A3; conditions: aerobic, read-out: minimum inhibitory concentration (MIC)
# [5] = system: Alcaligenes faecalis IFO 13111; conditions: IFO13111, aerobic, read-out: minimum inhibitory concentration (MIC)
# [6] = system: Bacillus subtilis PCI 219; conditions: PCI219, aerobic, read-out: minimum inhibitory concentration (MIC)
# [7] = system: Klebsiella pneumoniae FDA PCI 602; conditions: FDAPCI602, aerobic, read-out: minimum inhibitory concentration (MIC)
# Escherichia coli NR 2630 = conditions: NR2630; Escherichia coli NR 2630; aerobic; agar dilution; read-out: minimum inhibitory concentration (MIC)
# [8] = system: Staphylococcus aureus Smith; conditions: read-out: minimum inhibitory concentration (MIC)
# [9] = system: Serratia marcescens IFO 12648; conditions: IFO12648, aerobic, read-out: minimum inhibitory concentration (MIC)
# [10] = system: Escherichia coli NIHJ JC-2; conditions: NIHJJC2, aerobic, read-out: minimum inhibitory concentration (MIC)
# [11] = system: Salmonella typhimurium IFO 12529; conditions: Salmonella enterica, aerobic, read-out: minimum inhibitory concentration (MIC)
# [12] = system: Staphylococcus aureus NR 2855
# [13] = system: Staphylococcus epidermidis IFO 12993; conditions: IFO12993, aerobic, read-out: minimum inhibitory concentration (MIC)
# [14] = system: Staphylococcus aureus FDA 209P JC-1; conditions: FDA209P, read-out: minimum inhibitory concentration (MIC)
# [15] = system: Pseudomonas aeruginosa NR 2950; conditions: NR2950, aerobic, read-out: minimum inhibitory concentration (MIC)
# [16] = system: Proteus rettgeri ATCC 14505; conditions: Providencia rettgeri, ATCC14505, aerobic, read-out: minimum inhibitory concentration (MIC)
# [17] = system: Citrobacter freundii IFO 12681; conditions: IFO12681, aerobic, read-out: minimum inhibitory concentration (MIC)
# [18] = system: Bordetella bronchiseptica ATCC 4617; conditions: ATCC4617, aerobic, read-out: minimum inhibitory concentration (MIC)
# [19] = system: Enterobacter aerogenes NR 2945; conditions: Klebsiella aerogenes, NR2945, aerobic, read-out: minimum inhibitory concentration (MIC)
# [20] = system: Staphylococcus epidermidis NR 2942; conditions: NR2942, aerobic, read-out: minimum inhibitory concentration (MIC)
# [21] = system: Enterobacter cloacae NR 2946; conditions: NR2946, aerobic, read-out: minimum inhibitory concentration (MIC)
# [22] = Staphylococcus aureus Smith, aerobic, agar dilution
# [23] = NR2855, Staphylococcus aureus NR 2855, aerobic, agar dilution, read-out: minimum inhibitory concentration (MIC)
# [24] = Staphylococcus aureus FDA 209P JC-1, aerobic, agar dilution
Structure (SMILES),MIC [1] [µg/mL],MIC [2] [µg/mL],MIC [3] [µg/mL],MIC [4] [µg/mL],MIC [5] [µg/mL],MIC [6] [µg/mL],MIC [7] [µg/mL],MIC (Escherichia coli NR 2630) [µg/mL],MIC [9] [µg/mL],MIC [10] [µg/mL],MIC [11] [µg/mL],"MIC [12, 23] [µg/mL]",MIC [13] [µg/mL],MIC [15] [µg/mL],MIC [16] [µg/mL],MIC [17] [µg/mL],MIC [18] [µg/mL],MIC [19] [µg/mL],MIC [20] [µg/mL],MIC [21] [µg/mL],further results
CCN1CCN(c2c(F)cc3c(=O)c(C(=O)O)cn4c3c2OCN4C)CC1 [Example 42],0.025,0.1,6.25,0.39,1.56,0.05,0.39,0.025,0.1,0.05,0.025,0.39,0.39,3.13,0.39,0.05,0.39,0.025,0.39,0.05,"MIC [8, 22]: 0.39 µg/mL; MIC [14, 24]: 0.39 µg/mL"
"CN1COc2c(N3CCN(CS(=O)(=O)O)CC3)c(F)cc3c(=O)c(C(=O)O)cn1c23 [Example 52, disodium 9-fluoro-3-methyl-7-oxo-10-[4-(sulfonatomethyl)-1-piperazinyl]-2,3-dihydro-7H-pyrido-[3,2,1-ij]-1,3,4-benzoxadiazine-6-carboxylate]",0.025,0.05,25,0.2,12.5,0.2,0.2,0.025,0.2,0.05,0.025,3.13,1.56,1.56,0.2,0.025,6.25,0.025,1.56,0.05,MIC ([8]; Staphylococcus aureus): 0.39 µg/mL; MIC ([14]; Staphylococcus aureus): 0.39 µg/mL
"CN1COc2c(N3CCC(O)C3)c(F)cc3c(=O)c(C(=O)O)cn1c23 (centres unmarked) [Example 21, 9-fluoro-10-(3-hydroxy-1-pyrrolidinyl)-3-methyl-7-oxo-2,3-dihydro-7H-pyrido[3,2,1-ij]-1,3,4-benzoxadiazine-6-carboxylic acid]",0.05,0.2,3.13,1.56,0.78,0.05,0.78,0.2,0.39,0.39,0.39,0.2,0.39,3.13,0.78,0.78,0.78,0.2,0.39,0.78,MIC ([8]; Staphylococcus aureus): 0.39 µg/mL; MIC ([14]; Staphylococcus aureus): 0.39 µg/mL
"CCN(C)CC1CCN(c2c(F)cc3c(=O)c(C(=O)O)cn4c3c2OCN4C)C1 (centres unmarked) [Example 48, 10-[3-[(ethylmethylamino)methyl]-1-pyrrolidinyl]-9-fluoro-3-methyl-7-oxo-2,3-dihydro-7H-pyrido-[3,2,1-ij]-1,3,4-benzoxadiazine-6-carboxylic acid]",0.39,1.56,6.25,3.13,3.13,0.05,1.56,0.1,1.56,0.39,0.39,,0.39,50,3.13,0.39,6.25,0.39,0.78,0.39,"MIC [8, 22]: 0.2 µg/mL; MIC ([12]; Staphylococcus aureus, NR2855, read-out: minimum inhibitory concentration (MIC)): 0.39 µg/mL; MIC ([14]; Staphylococcus aureus): 0.39 µg/mL"
"CN1COc2c(N3CCC(CN)C3)c(F)cc3c(=O)c(C(=O)O)cn1c23 (centres unmarked) [Example 54, 10-[3-(aminomethyl)-1-pyrrolidinyl]-9-fluoro-3-methyl-7-oxo-2,3-dihydro-7H-pyrido[3,2,1-ij]-1,3,4-benzoxadiazine-6-carboxylic acid]",0.013,0.013,1.56,0.2,6.25,0.025,0.78,0.025,0.39,0.1,0.025,0.2,0.1,1.56,0.78,0.1,3.13,0.025,0.1,0.1,"MIC [8, 22]: 0.025 µg/mL; MIC [14, 24]: 0.013 µg/mL"

# From patent US4864023A, “Pyrido(3,2,1-IJ)-1,3,4-benzoxadiazine derivatives” (priority 1988, dated 1989)
